Measurements taken from patent US5679674A (priority 1992, dated 1997).
Where a name gives a salt, the structure may show the parent alone. Read-outs that look alike come from different tables or passages of the source.

Key:
[1] = system: p-Phenylquinone-induced agony (writhing response) in mice; test: p-Phenylquinone-induced agony test in mice (oral administration); type: in vivo, Male ddy mice; settings: Mus musculus, 0.25 h, read-out: Analgesic effect (Oral Administration) (ED50, mg/kg) Phenylquinone-induced agony test
Experimental: p-Phenylquinone-induced agony test in mice (oral administration)
According to the method of Siegmund et al. [Proc. Soc. Exptl. Biol. Med., 95, 729 (1957)], the title test was conducted. Male ddy mice (Japan SLC) each weighing about 20 g were fasted for about 16 hours from the day before the test and divided into groups each including from 5 to 10 mice.
A compound to be tested was dissolved in 0.5% tragacanth and administered orally. After 15 minutes, each 0.1 ml/mouse of 0.03% p-phenylquinone solution was injected intraperitoneally. During 5 to 10 minutes after injection, the number of agony reactions (writhing response) observed in each mouse was counted. Those mice showing 1/2 or less of the mean value of the numbers of agony reactions observed in the control mice injected with only physiological saline were regarded as analgesic-effective animals.

[2] = system: p-Phenylquinone-induced agony (writhing response) in mice; test: animal or person; type: in vivo, Male ddy mice; settings: Mus musculus, sc, 0.25 h, read-out: Analgesic effect (ED50, μg/kg sc) Phenylquinone-induced agony test
k-receptor = target: T1, k-receptor (Cavia porcellus, UniProt P41144); test: biochemical; type: binding, guinea pig
T1 construct: The whole brain of male Hertley guinea pigs (Japan SLC); from tissue; host or cells: crude membranes of guinea pig whole brain without cerebellum (Hartley, printed 'Hertley', males)
T1 sequence (P41144 whole entry): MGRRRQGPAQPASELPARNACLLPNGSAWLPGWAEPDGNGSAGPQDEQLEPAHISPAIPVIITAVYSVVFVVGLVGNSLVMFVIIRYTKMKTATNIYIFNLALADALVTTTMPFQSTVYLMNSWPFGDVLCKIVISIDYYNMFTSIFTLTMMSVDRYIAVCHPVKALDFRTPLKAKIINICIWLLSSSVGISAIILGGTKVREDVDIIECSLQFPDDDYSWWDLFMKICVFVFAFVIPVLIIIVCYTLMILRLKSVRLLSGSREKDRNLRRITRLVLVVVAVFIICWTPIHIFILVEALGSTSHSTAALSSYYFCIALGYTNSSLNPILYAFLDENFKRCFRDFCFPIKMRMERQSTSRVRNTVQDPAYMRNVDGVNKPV

μ-receptor = target: T2, μ-receptor (Cavia porcellus, UniProt A0ACM8Q262); design: species or system guinea pig; settings: read-out: Binding to the receptors (IC50, nM) μ
T2 construct: tritiated DAGO (DAMGO) displacement
T2 sequence (A0ACM8Q262 1-400): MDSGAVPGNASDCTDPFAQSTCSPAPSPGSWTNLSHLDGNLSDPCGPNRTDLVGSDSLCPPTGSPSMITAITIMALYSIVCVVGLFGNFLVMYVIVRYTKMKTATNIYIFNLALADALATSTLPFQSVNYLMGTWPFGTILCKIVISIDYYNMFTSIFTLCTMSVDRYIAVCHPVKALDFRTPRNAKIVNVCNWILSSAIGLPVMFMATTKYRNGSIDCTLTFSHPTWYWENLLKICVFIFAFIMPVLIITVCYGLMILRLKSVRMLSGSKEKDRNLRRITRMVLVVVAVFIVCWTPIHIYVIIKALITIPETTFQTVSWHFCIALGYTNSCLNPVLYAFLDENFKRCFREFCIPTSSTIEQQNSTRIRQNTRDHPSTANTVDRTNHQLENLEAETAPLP

[3] = read-out: Binding to the receptors (IC50, nM) k

Compound | ED50 [1] | ED50 [2] | IC50 (k-receptor; [3]) | IC50 (μ-receptor) | IC50 (k-receptor)
O=C1CC[C@H](C(=O)N2CCSC[C@H]2CN2CCCCC2)c2cc(Cl)c(Cl)cc21 [Example 3, (3R)-3-(1-Piperidinylmethyl)-4-[(1S)-6,7-dichloro-4(3H)-oxo-1,2-dihydro-1-naphthoyl]thiomorpholine hydrochloride] | 0.29 mg/kg | 13 µg/kg | 1.7 nM | 1800 nM | –
O=C([C@H]1CCc2cc(Cl)c(Cl)cc21)N1CCSC[C@@H]1CN1CCCC1 [Corresponding (3S, 1S)] | – | 7800 µg/kg | – | 15000 nM | 920 nM
O=C([C@@H]1CCc2cc(Cl)c(Cl)cc21)N1CCSC[C@@H]1CN1CCCC1 [Corresponding (3S, 1R)] | – | 10900 µg/kg | – | 12000 nM | 21000 nM
O=C([C@H]1CCc2cc(Cl)c(Cl)cc21)N1CCSC[C@H]1CN1CCCC1 [Example 1, (3R)-3-(1-Pyrrolidinylmethyl)-4-[(1S)-(5,6-dichloro-1-indanecarbonyl]thiomorpholine hydrochloride] | 0.011 mg/kg | 1.3 µg/kg | 0.44 nM | 300 nM | –
O=C1C[C@H](C(=O)N2CCSC[C@H]2CN2CCCC2)c2cc(Cl)c(Cl)cc21 (relative stereo) [Racemate Corresponding to Compound of Example 2] | 0.79 mg/kg | – | – | – | –
O=C([C@@H]1CCc2cc(Cl)c(Cl)cc21)N1CCSC[C@H]1CN1CCCC1 [Corresponding (3R, 1R)] | – | 23900 µg/kg | 3500 nM | 32000 nM | –
O=C([C@H]1CCc2cc(Cl)c(Cl)cc21)N1CCSC[C@H]1CN1CCCC1 (relative stereo) [Racemate Corresponding to Compound of Example 1] | 0.18 mg/kg | – | – | – | –
O=C1CC[C@H](C(=O)N2CCSC[C@H]2CN2CCCCC2)c2cc(Cl)c(Cl)cc21 (relative stereo) [Racemate Corresponding to Compound of Example 3] | 1.22 mg/kg | – | – | – | –
O=C1C[C@H](C(=O)N2CCSC[C@H]2CN2CCCC2)c2cc(Cl)c(Cl)cc21 [Example 2, (3R)-3-(1-Pyrrolidinylmethyl)-4-[(1S)-3-oxo-5,6-dichloro-1-indanecarbonyl]thiomorpholine hydrochloride] | 0.031 mg/kg | 0.6 µg/kg | – | 330 nM | 0.46 nM
